In PubChem BioAssay AID1996:
≈ marks a conversion by molar mass, not a printed value.

Conditions: buffer; pH 7.4; 200.0 µM

Question: With `COc1cccc2c3c(c(=O)[nH]c12)CC(C)(C)O3` as the compound, how does the solubility kinetic read?
Answer: > 36.8 µg/mL

Question: For `COc1cc(OC)c(N(C)S(=O)(=O)c2cccc(C(=O)OCC(=O)N3CCOCC3)c2)cc1Cl`, which solubility kinetic is on record?
Answer: 56.6 µg/mL (≈ 110 µM)

Question: With `Cc1c(C(=O)NCCCn2ccnc2)oc2ccccc12` as the compound, how does the solubility kinetic read?
Answer: 34.1 µg/mL (≈ 120 µM)

Question: Which solubility kinetic does the source give for `Cc1ccc(NC(=O)COc2ccccc2)cc1Cl` here?
Answer: 2.4 µg/mL (≈ 8.7 µM)

Question: For `COC(=O)c1sc(SC)c2c1CC(C)(C)C/C2=N/O`, which solubility kinetic is on record?
Answer: < 0.6 µg/mL

Question: Which solubility kinetic does the source give for `CCOc1ccc(S(=O)(=O)Nc2ccc3c(c2)OCO3)cc1` here?
Answer: 45.4 µg/mL (≈ 141 µM)

Question: Which solubility kinetic does the source give for `O=[N+]([O-])c1ccc2c(c1)nc1n2CCN(CC2CCCO2)C1` (stereo not drawn) here?
Answer: 41.1 µg/mL (≈ 136 µM)

Question: Which solubility kinetic does the source give for `COc1ccccc1N1CCN(C(=O)CSc2nnc(C)n2C2CC2)CC1` here?
Answer: > 58.1 µg/mL

Question: Which solubility kinetic does the source give for `COc1ccccc1C(=O)NCc1ccccn1` here?
Answer: > 36.3 µg/mL

Question: For `Cc1ccc2cccc(OCc3ccc(Br)cc3)c2n1`, which solubility kinetic is on record?
Answer: 0.9 µg/mL (≈ 2.74 µM)

Question: With `Cc1ccc(-c2nc(-c3ccncc3)no2)cc1C` as the compound, how does the solubility kinetic read?
Answer: 0.7 µg/mL (≈ 2.79 µM)

Question: With `CN(CC(=O)Nc1cccc(F)c1)C(=O)c1ccc(OCc2cn3ccccc3n2)cc1` as the compound, how does the solubility kinetic read?
Answer: 9.2 µg/mL (≈ 21.3 µM)

Question: For `COc1ccccc1OCCC(=O)OCC(=O)NCc1ccc(F)cc1`, which solubility kinetic is on record?
Answer: 23.5 µg/mL (≈ 65 µM)

Question: Which solubility kinetic does the source give for `N#Cc1c(F)cccc1NCc1cccnc1` here?
Answer: 33.2 µg/mL (≈ 146 µM)

Question: Which solubility kinetic does the source give for `O=C(C(=S)N1CCOCC1)c1c[nH]c2ccccc12` here?
Answer: > 41.2 µg/mL

Question: Which solubility kinetic does the source give for `COc1ccc2c(c1)c(C(C)=O)c(C)n2CCc1ccc(OC)c(OC)c1` here?
Answer: 50.8 µg/mL (≈ 138 µM)

Question: For `CC(C)C(NC(=O)c1cccs1)C(=O)NC1CCCCC1` (stereo not drawn), which solubility kinetic is on record?
Answer: 4.7 µg/mL (≈ 15.2 µM)

Question: For `Cl.OC(CNC1CCCC1)COc1ccc(Cl)cc1` (stereo not drawn), which solubility kinetic is on record?
Answer: > 45.9 µg/mL

Question: Which solubility kinetic does the source give for `CC1CCCN(Cc2c(O)ccc3c4c(c(=O)oc23)CCCC4)C1` (stereo not drawn) here?
Answer: 44 µg/mL (≈ 134 µM)

Question: With `COc1cc(/C=C2\NC(=O)NC2=O)cc(Br)c1OC` as the compound, how does the solubility kinetic read?
Answer: 10.5 µg/mL (≈ 32.1 µM)

Question: For `O=C1NC(=Nc2cccnc2)S/C1=C\c1cccc(F)c1`, which solubility kinetic is on record?
Answer: 3.2 µg/mL (≈ 10.7 µM)

Question: For `COc1ccccc1/C=C/c1nc(C#N)c(N(C)C)o1`, which solubility kinetic is on record?
Answer: 0.4 µg/mL (≈ 1.49 µM)

Question: With `CCC(C)Nc1nc(N)c([N+](=O)[O-])c(Nc2ccccc2OC)n1` (stereo not drawn) as the compound, how does the solubility kinetic read?
Answer: 2.6 µg/mL (≈ 7.82 µM)

Question: Which solubility kinetic does the source give for `CCCc1cc(C(=O)Nc2ccc(C#N)cc2)no1` here?
Answer: 2.4 µg/mL (≈ 9.4 µM)

Question: With `C=CC(=O)NC(NC(=O)C=C)c1ccccc1F` as the compound, how does the solubility kinetic read?
Answer: > 37.2 µg/mL

Question: Which solubility kinetic does the source give for `NC(=O)COC(=O)c1sc2ccccc2c1Cl` here?
Answer: 12.4 µg/mL (≈ 46 µM)

Question: Which solubility kinetic does the source give for `COc1ccc(-c2noc(-c3ccc(Br)o3)n2)cc1` here?
Answer: < 0.3 µg/mL

Question: With `CCOC(=O)c1ccc(NC(=O)c2cc(F)c(F)cc2Cl)cc1` as the compound, how does the solubility kinetic read?
Answer: < 0.7 µg/mL

Question: With `O=C(COC(=O)c1cccc(Cl)c1)NCc1ccccc1` as the compound, how does the solubility kinetic read?
Answer: 4.6 µg/mL (≈ 15.1 µM)

Question: For `O=C(CNC(=O)c1ccc(Cl)cc1)Nc1ccccc1C(F)(F)F`, which solubility kinetic is on record?
Answer: 3.4 µg/mL (≈ 9.53 µM)

Question: For `Cc1c(Cl)ccc2c(C(N)=O)cc(-c3ccccn3)nc12`, which solubility kinetic is on record?
Answer: 0.2 µg/mL (≈ 0.672 µM)

Question: With `COc1ccc(NC(=O)CC2Oc3ccccc3NC2=O)c(OC)c1` (stereo not drawn) as the compound, how does the solubility kinetic read?
Answer: 4 µg/mL (≈ 11.7 µM)

Question: Which solubility kinetic does the source give for `CCOC1=C/C(=C/c2c(N)n3oc(C)cc3nc2=O)C=CC1=O` here?
Answer: 11.9 µg/mL (≈ 38 µM)

Question: For `Cc1ccccc1NC(=O)N1CCN(C/C=C/c2ccccc2)CC1`, which solubility kinetic is on record?
Answer: > 50.3 µg/mL

Question: For `O=C1COc2ccc(C(=O)COC(=O)c3ccccc3Cl)cc2N1`, which solubility kinetic is on record?
Answer: 4.5 µg/mL (≈ 13 µM)

Question: With `CCOc1ccc(-c2noc(-c3cccnc3)n2)cc1OCC` as the compound, how does the solubility kinetic read?
Answer: 2.2 µg/mL (≈ 7.07 µM)

Question: Which solubility kinetic does the source give for `CSc1ccc(CN2CCCCCC2)cc1` here?
Answer: 22.1 µg/mL (≈ 93.9 µM)

Question: For `COCc1c(C(=O)Nc2cccc(S(=O)(=O)N3CCCCC3)c2)oc2ccccc12`, which solubility kinetic is on record?
Answer: 3.1 µg/mL (≈ 7.23 µM)

Question: For `C=CCn1c(O)c(C=NCCCn2ccnc2)c(=O)[nH]c1=O`, which solubility kinetic is on record?
Answer: > 45.5 µg/mL

Question: Which solubility kinetic does the source give for `COC(=O)c1sccc1NC(=O)CSc1ccccc1N` here?
Answer: 20.8 µg/mL (≈ 64.5 µM)

Question: Which solubility kinetic does the source give for `O=C(Nc1ccc2cccnc2c1)c1ccc(Br)cc1` here?
Answer: 0.4 µg/mL (≈ 1.22 µM)

Question: Which solubility kinetic does the source give for `CCOC(=O)C1CCCN(C(=O)CNC(=O)c2ccc(Br)o2)C1` (stereo not drawn) here?
Answer: > 58.1 µg/mL

Question: For `O=Cc1c(NCc2ccc(F)cc2)c2ccccc2[nH]c1=O`, which solubility kinetic is on record?
Answer: 2.6 µg/mL (≈ 8.77 µM)

Question: For `O=C1NC(=O)/C(=C/c2cccc3ccccc23)S1`, which solubility kinetic is on record?
Answer: > 38.3 µg/mL

Question: Which solubility kinetic does the source give for `C[n+]1cccc2cccc([O-])c21.O` here?
Answer: 25.2 µg/mL

Question: For `CN1C(=O)C(=O)N(c2cccc(C(F)(F)F)c2)C1=O`, which solubility kinetic is on record?
Answer: 39.9 µg/mL (≈ 147 µM)

Question: With `Cc1cc(C)c(S(=O)(=O)Nc2ccc(Cl)cn2)c(C)c1` as the compound, how does the solubility kinetic read?
Answer: 1.8 µg/mL (≈ 5.79 µM)

Question: With `O=C(COC(=O)c1ccccc1Cl)Nc1ccc2[nH]c(=O)[nH]c2c1` as the compound, how does the solubility kinetic read?
Answer: 23.3 µg/mL (≈ 67.4 µM)
